One data set concerns left femur (distal half). Nature of the data set: Total femoral bone calcium in ovariectomized rats. The class given is in vivo, adult female rats. The note with it: ovx rats, 19 days, text: calcium in mg/distal half femur, Ovx/Veh. 10.58.
A further data set concerns telomerase. The data set can be described thus: Telomerase activity (TRAP assay) in HL-60 cells. The settings on record: 4 days. The class given is cell-based. As to the method: Telomerase Activity. To detect the relative telomerase activity, telomeric repeat amplification protocol (TRAP) assays were performed. For human telomerase reverse transcriptase (hTERT), total RNAs were isolated from HL-cells which were treated with either 1,25(OH)2 D3 or 1,25(OH)2 -16-ene-5,6-trans-D3 (10^- 9 10^-8, and 10^-7 M) for 4 days with a monophasic solution of phenol and guanidine isothiocyanate. RT-PCR was performed with 1 μg of total RNA and random hexamer primers. cDNA was amplified using primers specific for the hTERT gene or the GAPDH gene, which was used as a control. The primers used for hTERT were: 5'-[…]-3' (sense) (SEQ ID NO: 1), and 5'-GGATGAAGCGGAGTCTGGA-3'-(antisense) (SEQ ID NO: 2). The thermal cycles were 94° C. for 90 seconds, followed by 33 cycles of 95° C. for 20 seconds, 68° C. for 40 seconds, and 72° C. for 30 seconds. Primers for the GAPDH gene were: 5'-CCATGGAGAAGGCTGGGG-3' (sense) (SEQ ID NO: 3), and 5'-[…]-3' (antisense) (SEQ ID NO: 4). Conditions for GAPDH amplifications were: 94° C. for 2 minutes, 26 cycles of 94° C. for 30 seconds, 62° C. for 40 seconds, 72° C. for 60 seconds, followed by 72° C. for 4 minutes. […]
Telomerase Activity. The effect of 1,25(OH)2 -16-ene-5,6-trans-D3and 1,25(OH)2 D3 (10^-9 -10^-7 M, 4 days) on telomerase activity was evaluated using the TRAP assay.

The subject of a further data set is MCF-7 cells. Nature of the data set: Pulse-exposure experiments, soft agar colony assay. Format: cell-based. The note with it: 4 days of exposure, 10^-7, colonies counted day 14. As to the method: Pulse-Exposure Experiments. The MCF-7 cells were incubated in liquid culture with 10^-7 of 1,25(OH)2 D3 or 1,25(OH)2 -16-ene-5,6-trans-D3 for various duration. After incubation, these cells were carefully washed twice with PBS and viable cells were counted and plated into 24-well plates for soft agar colony assay, as previously described.
Pulse-Exposure Experiments. […] The MCF-7 cells were exposed to either 1,25(OH)2 -16-ene-5,6-trans-D3 or 1,25(OH)2 D3 for various durations, washed thoroughly, plated in soft agar, and colony numbers were enumerated on day 14 of culture.

A further data set relates to seminal vesicles. Nature of the data set: Antiandrogenic activity in castrated testosterone stimulated hamsters, seminal vesicles. The class given is in vivo, male Syrian hamsters. How it is done: (§1) 1,25(OH)2 -16-ene-5,6-trans D3 was evaluated for antiandrogenic activity in castrated, testosterone stimulated male Syrian hamsters.
(§2) […] Both compounds were administered in a vehicle of 0.2 ml sesame oil each. Necropsy was performed on day 15. The prostate and seminal vesicles were removed, blotted and weighed. Data were analyzed for statistical significance using the Student's t-test and are expressed as percent inhibition of stimulated response.

Data set [1] can be described thus: Serum calcium levels in ovariectomized rats. The class given is in vivo, adult female rats. The settings on record: ovx rats, Ovx/Veh. 10.41. How it is done:
Three month old adult female rats were subjected to bilateral ovariectomy or sham surgery. […] Dose volume was calculated weekly using the group average body weight. Dosing started 17 days post surgery and continued for 19 days. On the 20th day animals were euthanized by carbon dioxide inhalation and left femurs excised.
Blood (1.5 ml) was collected from each animal by orbital puncture under ether anesthesia on day 7 and day 18 of dosing. Blood was collected into serum separator tubes, centrifuged at 2000 rpm for 15 min. and then serum aliquoted for calcium determinations. Serum calcium was determined by colorimetric assay.
For a verification of the effect of ovariectomy on bone calcium, the sham and ovx vehicle groups were compared using student's t-test. The ovx groups were compared by one-way analysis of variance (ANOVA), followed by Fisher's LSD to compare each treatment group to vehicle when the overall effect was statistically significant.

Another data set deals with p27^kip1. Nature of the data set: Western blot analysis, p27^kip1 in HL-60 cells. Format: cell-based. As to the method: Western Blot Analysis. Cells were washed twice with PBS, suspended in Lysis buffer (50 mM Tris Ph 8.0, 150 mM NaCl, 0.1% SDS, 0.5% sodium deoxycholate, 1% NP40, 100 μg/ml phenylmethylsulfonyl fluoride, 2 μg/ml aprotinin, 1 μg/ml pepstatin and 10 μg/ml leupeptin), and placed on ice for 30 minutes. After centrifugation at 15,000 g for 20 minutes at 4° C., the supernatant was collected. Protein concentrations were quantitated. […] Blots were developed.
The dose-dependent effect of the vitamin D3 compounds on expression of p27^kip1 HL-60 cells was examined.
For orientation: A western blot detects proteins with antibodies after separation by electrophoresis.

A further data set has as its system p21^waf1. Nature of the data set: Western blot analysis, p21^waf1 in MCF-7 cells. The class given is cell-based. The settings on record: Homo sapiens, read-out: increase in expression of p21^waf1. How it is done: Western Blot Analysis. Cells were washed twice with PBS, suspended in Lysis buffer (50 mM Tris Ph 8.0, 150 mM NaCl, 0.1% SDS, 0.5% sodium deoxycholate, 1% NP40, 100 μg/ml phenylmethylsulfonyl fluoride, 2 μg/ml aprotinin, 1 μg/ml pepstatin and 10 μg/ml leupeptin), and placed on ice for 30 minutes. After centrifugation at 15,000 g for 20 minutes at 4° C., the supernatant was collected. Protein concentrations were quantitated. Whole lysates (15 μg) were resolved by 15% sodium dodecyl sulphate polyacrylamide gel, were transferred to an immobilon polyvinylidene difuride membrane and were probed with anti-p27^kip1 rabbit polyclonal antibody and anti-Actin murine monoclonal antibody. Blots were developed.
Western Blot Analysis. The cyclin dependent kinase inhibitors known as p21^waf1 and p27^kip1 are able to inhibit the activity of cyclin kinase and thus slow the progression for the cells through the cell cycle. […] Exposure for one day to 1,25(OH)2 -16-ene-5,6-trans-D3 (10^-7 M) increased expression of p21^waf1 and p27^kip1 by about 3.2-3.5 fold, whereas culture with 1,25(OH)2 D3 (10^-7 M) increased expression of p21^waf1 and p27^kip1 about 1.6-1.8 fold. […] 1,25(OH)2 D3 (10^-7 M, 3 days) increased expression of p21^waf1 and p27^kip1 by 4.8 fold and 3.3 fold, respectively.

The test system of the next data set is hTERT mRNA. The data set can be described thus: hTERT mRNA expression (RT-PCR) in HL-60 cells. The class given is cell-based, human. The settings on record: for IC (almost complete): Homo sapiens, read-out: concentration giving almost complete inhibition of hTERT mRNA expression. As to the method:
Telomerase Activity. To detect the relative telomerase activity, telomeric repeat amplification protocol (TRAP) assays were performed. For human telomerase reverse transcriptase (hTERT), total RNAs were isolated from HL-cells which were treated with either 1,25(OH)2 D3 or 1,25(OH)2 -16-ene-5,6-trans-D3 (10^- 9 10^-8, and 10^-7 M) for 4 days with a monophasic solution of phenol and guanidine isothiocyanate. RT-PCR was performed with 1 μg of total RNA and random hexamer primers. cDNA was amplified using primers specific for the hTERT gene or the GAPDH gene, which was used as a control. The primers used for hTERT were: 5'-[…]-3' (sense) (SEQ ID NO: 1), and 5'-GGATGAAGCGGAGTCTGGA-3'-(antisense) (SEQ ID NO: 2). The thermal cycles were 94° C. for 90 seconds, followed by 33 cycles of 95° C. for 20 seconds, 68° C. for 40 seconds, and 72° C. for 30 seconds. Primers for the GAPDH gene were: 5'-CCATGGAGAAGGCTGGGG-3' (sense) (SEQ ID NO: 3), and 5'-[…]-3' (antisense) (SEQ ID NO: 4). Conditions for GAPDH amplifications were: 94° C. for 2 minutes, 26 cycles of 94° C. for 30 seconds, 62° C. for 40 seconds, 72° C. for 60 seconds, followed by 72° C. for 4 minutes. PCR products were electrophoresed on 1% agarose gel and stained with ethidium bromide.
The effects of vitamin D3 analogs on hTERT expression in HL-60 cells was evaluated using RT-PCR.

The test system of another data set is ventral prostate. The data set can be described thus: Antiandrogenic activity in castrated testosterone stimulated hamsters, ventral prostate. Format: in vivo, male Syrian hamsters. As to the method:
as §1, §2

Setting [2] is: castrated, testosterone stimulated hamsters.
Setting [3] is: testosterone + 0.1 μg compound s.c. daily, 14 days.

Like-named read-outs stand apart in the source and are kept apart here.

Procedure for left femur (distal half): Three month old adult female rats were subjected to bilateral ovariectomy or sham surgery. After a week of acclimatization the animals were weight grouped and treated by oral gavage at 1 mg/kg of specified concentration. Dose volume was calculated weekly using the group average body weight. Dosing started 17 days post surgery and continued for 19 days. On the 20th day animals were euthanized by carbon dioxide inhalation and left femurs excised.
At necropsy the left femurs from all groups were excised and soft tissue removed. The bones were measured and cut in half at mid-diaphysis; then the distal portion was cut in half longitudinally after removal of the epiphysis. The bone marrow was flushed out and the calcium was extracted by immersion in 5% TCA. The calcium content of TCA extracts was determined by using quantitative, colorimetric determination of calcium. The data were expressed as mean total bone calcium in mg/distal half femur (DHF)±serum.

`C=C1/C(=C\C=C2/CCC[C@]3(C)[C@@H]([C@H](C)CCCC(C)(C)O)CC[C@@H]23)C[C@@H](O)C[C@@H]1O` [1,25(OH)2 D3, reference compound]: the “Femur CA/100 g BW” value in the data set with left femur (distal half) (0.500 μg/kg oral) is on record as 11.91 /100 g BW. Also, the telomerase activity entry with telomerase (10^-7 M) was “markedly decreased”. Moreover, in the data set on MCF-7 cells, the clonogenic cells inhibited result is on record as “thirty”. In the data set with seminal vesicles (non-toxic doses (1 μg)), the “androgen-induced hypertrophy of the seminal vesicles” value was “inactive”. In addition, the “Serum Calcium” value in data set [1] (dose printed 0500 μg/kg oral) worked out at 11.74 mg/dL. Besides, in the data set with p27^kip1, the “expression of p27^kip1” value is “up-regulated”. The “levels of p27^kip1” value with p27^kip1 (10^-8-10^-7 M) is reported as “increased prominently”. The fold induction at 0.1 µM is 1.6 to 1.8 in the data set on p21^waf1 (MCF7, 24 h) and 4.8 in the data set with p21^waf1 (MCF7, 72 h). Further, the “expression of hTERT mRNA” value with hTERT mRNA (HL-60 cells, 4 days) was “inhibited the expression of hTERT mRNA in a dose-dependent manner”. Also, in the data set on hTERT mRNA (HL-60, 96 h), the IC (almost complete) worked out at 0.1 µM. Further, the “androgen-induced hypertrophy of the ventral prostate gland” value in the data set with ventral prostate (non-toxic doses (1 μg)) was “inactive”.

As to `C=C1/C(=C/C=C2\CCC[C@]3(C)C([C@H](C)CCCC(C)(C)O)=CC[C@@H]23)C[C@@H](O)C[C@@H]1O` [1,25(OH)2-16-ene-5,6-trans-D3, 1,25-Dihydroxy-16-ene-5,6-trans-cholecalciferol], the “Femur CA/100 g BW” value with left femur (distal half) (2.000 μg/kg oral) is given as 11.49 /100 g BW. Moreover, in the data set on telomerase (10^-9 M), the telomerase activity result is “markedly decreased”. Further, the clonogenic cells inhibited entry in the data set on MCF-7 cells is “Approximately forty”. In addition, the “androgen-induced hypertrophy of the seminal vesicles” value in the data set with seminal vesicles (setting [2]) is recorded as “substantially suppressed”. The “Seminal vesicles Inhib. (percent inhibition of stimulated response)” value in the data set with seminal vesicles (setting [3]) is given as 48%. Further, the Seminal vesicles weight in the data set with seminal vesicles (testosterone + 0.1 μg compound s.c. daily, 14 days, mg ± SEM) amounted to 71 ± 1 mg. For the same compound, in data set [1] (2.000 μg/kg oral), the “Serum Calcium” value came to 9.98 mg/dL. Moreover, the “expression of p27^kip1” value with p27^kip1 is listed as “up-regulated”; in the data set on p27^kip1 (4 days, 10^-9 M), “markedly increased”. Further, the fold induction at 0.1 µM in the data set with p21^waf1 (MCF7, 24 h) is 3.2 to 3.5; with p21^waf1 (MCF7, 72 h) it was 2.8. Besides, the “expression of hTERT mRNA” value in the data set on hTERT mRNA (HL-60 cells, 4 days) is “inhibited the expression of hTERT mRNA in a dose-dependent manner”. In the data set with hTERT mRNA (96 h, HL-60 cells, 4 days), the IC (almost complete) worked out at 0.01 µM. For the same compound, in the data set on ventral prostate (setting [2]), the “androgen-induced hypertrophy of the ventral prostate gland” value is “substantially suppressed”. Moreover, in the data set on ventral prostate (setting [3]), the “Ventral prostate Inhib. (percent inhibition of stimulated response)” value was 77%. Further, the Ventral prostate weight with ventral prostate (setting [3]) turned out to be 19 ± 2 mg.

The record behind these values is patent publication US6331642A, “Vitamin D3 analogs” (Hoffmann-La Roche Inc., priority 2000, dated 2001).
